Where “and” joins values, the source holds several entries; their conditions need not be identical. Identical values can stand only once. Inconclusive results and toxic doses are left out. The calls were made as follows: active = survival T/C of 150% or more; inactive = T/C below 125% in these data.
Test system: P388 leukemia ip, CD2F1 mice, survival T/C
Experiment: NCI In Vivo Anticancer Drug Screen. Data for tumor model P388 Leukemia (intraperitoneal) in CD2F1 (CDF1) mice
Details: endpoint: median survival time, higher = longer survival
Summary of the method: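 Mice carrying the transplanted tumor received test compound or vehicle. Survival was recorded in each group, and the value is the treated-group measurement divided by that of the vehicle-treated control group.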

[1] = dose: 100.0 mg/kg/injection, schedule: Q01DX009 (ip), vehicle: saline
[2] = dose: 200.0 mg/kg/injection, schedule: Q01DX009 (ip), vehicle: saline
[3] = dose: 50.0 mg/kg/injection, schedule: Q01DX005 (ip), vehicle: Klucel (hydroxypropylcellulose) (HPC)
[4] = dose: 100.0 mg/kg/injection, schedule: Q01DX005 (ip), vehicle: Klucel (hydroxypropylcellulose) (HPC)
[5] = dose: 200.0 mg/kg/injection, schedule: Q01DX005 (ip), vehicle: Klucel (hydroxypropylcellulose) (HPC)
[6] = dose: 12.5 mg/kg/injection, schedule: Q01DX005 (ip), vehicle: Klucel (hydroxypropylcellulose) (HPC)
[7] = dose: 100.0 mg/kg/injection, schedule: Q04DX003 (ip), vehicle: saline
[8] = dose: 200.0 mg/kg/injection, schedule: Q04DX003 (ip), vehicle: saline
[9] = dose: 50.0 mg/kg/injection, schedule: Q01DX009 (ip), vehicle: saline
[10] = dose: 60.0 mg/kg/injection, schedule: Q01DX005 (ip), vehicle: saline with Tween-80
[11] = dose: 120.0 mg/kg/injection, schedule: Q01DX005 (ip), vehicle: saline with Tween-80
[12] = dose: 240.0 mg/kg/injection, schedule: Q01DX005 (ip), vehicle: saline with Tween-80

Measured: T/C

CNc1nc(N(C)C)nc(N(C)C)n1
inactive: dose: 6.25 mg/kg/injection, schedule: Q01DX009 (ip), vehicle: water 105 % of control and 96 % of control | dose: 12.5 mg/kg/injection, schedule: Q01DX009 (ip), vehicle: water 105 % of control | dose: 16.0 mg/kg/injection, schedule: Q03HX008 (ip), vehicle: water 102 % of control | dose: 16.0 mg/kg/injection, schedule: Q03HX016 (ip), vehicle: water 96 % of control | dose: 16.0 mg/kg/injection, schedule: Q03HX024 (ip), vehicle: water 96 % of control | dose: 25.0 mg/kg/injection, schedule: Q01DX009 (ip), vehicle: water 105 % of control | dose: 30.0 mg/kg/injection, schedule: Q01DX009 (ip), vehicle: water 104 % of control | dose: 32.0 mg/kg/injection, schedule: Q01DX005 (ip), vehicle: water 99 % of control | dose: 32.0 mg/kg/injection, schedule: Q01DX009 (ip), vehicle: water 86 % of control | dose: 32.0 mg/kg/injection, schedule: Q01DX009 (oral), vehicle: water 110 % of control | dose: 32.0 mg/kg/injection, schedule: Q01DX009 (sc), vehicle: water 106 % of control | dose: 32.0 mg/kg/injection, schedule: Q03HX008 (ip), vehicle: water 103 % of control | dose: 32.0 mg/kg/injection, schedule: Q03HX016 (ip), vehicle: water 100 % of control | dose: 32.0 mg/kg/injection, schedule: Q03HX024 (ip), vehicle: water 114 % of control | dose: 44.0 mg/kg/injection, schedule: Q01DX009 (ip), vehicle: water 104 % of control | dose: 50.0 mg/kg/injection, schedule: Q01DX009 (ip), vehicle: water 112 % of control | dose: 64.0 mg/kg/injection, schedule: Q01DX001 (ip), vehicle: water 102 % of control | dose: 64.0 mg/kg/injection, schedule: Q01DX001 (oral), vehicle: water 103 % of control | dose: 64.0 mg/kg/injection, schedule: Q01DX005 (ip), vehicle: water 109 % of control | dose: 64.0 mg/kg/injection, schedule: Q01DX009 (ip), vehicle: water 93 % of control | dose: 64.0 mg/kg/injection, schedule: Q01DX009 (oral), vehicle: water 115 % of control | dose: 64.0 mg/kg/injection, schedule: Q01DX009 (sc), vehicle: water 117 % of control | dose: 64.0 mg/kg/injection, schedule: Q04DX003 (ip), vehicle: water 105 % of control | dose: 64.0 mg/kg/injection, schedule: Q08DX002 (ip), vehicle: water 103 % of control | dose: 67.0 mg/kg/injection, schedule: Q01DX009 (ip), vehicle: water 116 % of control | dose: 128.0 mg/kg/injection, schedule: Q01DX001 (ip), vehicle: water 102 % of control | dose: 128.0 mg/kg/injection, schedule: Q01DX001 (oral), vehicle: water 101 % of control | dose: 128.0 mg/kg/injection, schedule: Q01DX005 (ip), vehicle: water 99 % of control | dose: 128.0 mg/kg/injection, schedule: Q01DX009 (oral), vehicle: water 96 % of control | dose: 128.0 mg/kg/injection, schedule: Q01DX009 (sc), vehicle: water 86 % of control | dose: 128.0 mg/kg/injection, schedule: Q04DX003 (ip), vehicle: water 112 % of control | dose: 128.0 mg/kg/injection, schedule: Q08DX002 (ip), vehicle: water 114 % of control | dose: 256.0 mg/kg/injection, schedule: Q01DX001 (oral), vehicle: water 100 % of control

C/C(=N\O)C(O)c1ccccc1 (stereo unspecified)
inactive: [1] 88 % of control | [2] 93 % of control | dose: 400.0 mg/kg/injection, schedule: Q01DX009 (ip), vehicle: saline 100 % of control

C[C@@H]1C(=O)OCC2=C3C[C@@H](CC[C@@]3(C)C=CC2=O)[C@H](C)C(=O)OCC2=C3C[C@H]1CC[C@@]3(C)C=CC2=O
inactive: [3] 100 % of control | [4] 101 % of control | [5] 95 % of control

COc1cc(NC(C)CN(CC(C)C)C(C)C)c2ncccc2c1 (stereo unspecified)
inactive: dose: 50.0 mg/kg/injection, schedule: Q01DX005 (ip), vehicle: saline 104 % of control | dose: 100.0 mg/kg/injection, schedule: Q01DX005 (ip), vehicle: saline 98 % of control

CC(=O)NC1C(=O)CC(c2ccccc2)N(C)C1c1ccccc1 (stereo unspecified)
inactive: [3] 101 % of control | [4] 97 % of control | [5] 90 % of control

NC(=S)c1ccc(C=Nc2ccc(Cl)cc2)cc1
inactive: dose: 50.0 mg/kg/injection, schedule: Q01DX001 (ip), vehicle: other 102 % of control | dose: 100.0 mg/kg/injection, schedule: Q01DX001 (ip), vehicle: other 98 % of control

CC(C)=CCCC(C)C1(O)CCC(C)=CC1=O (stereo unspecified)
inactive: [6] 96 % of control | dose: 25.0 mg/kg/injection, schedule: Q01DX005 (ip), vehicle: Klucel (hydroxypropylcellulose) (HPC) 99 % of control | [3] 94 % of control | [4] 99 % of control

CC(=O)CN1CCSC1=N
inactive: dose: 100.0 mg/kg/injection, schedule: Q01DX001 (ip), vehicle: saline 97 % of control

CCOC(=O)C(NC(C)=O)(C(=O)OCC)c1ccc(N)cn1
inactive: [7] 99 % of control | [8] 103 % of control | dose: 400.0 mg/kg/injection, schedule: Q04DX003 (ip), vehicle: saline 98 % of control

c1ccc(Cc2cc(-c3ccccc3)[nH]c2-c2ccccc2)cc1
inactive: [9] 100 % of control | [1] 104 % of control | [2] 90 % of control

Cl[Si]1(Cl)CCCC1
inactive: dose: 50.0 mg/kg/injection, schedule: Q01DX009 (ip), vehicle: other 99 % of control | dose: 100.0 mg/kg/injection, schedule: Q01DX009 (ip), vehicle: other 100 % of control | dose: 200.0 mg/kg/injection, schedule: Q01DX009 (ip), vehicle: other 99 % of control

CN(C)c1ccc([N+](C)(C)Cc2ccc(C[N+](C)(C)c3ccc([N+](C)(C)Cc4ccc(CCl)cc4)cc3)cc2)cc1
inactive: dose: 3.13 mg/kg/injection, schedule: Q01DX001 (ip), vehicle: saline 108 % of control | dose: 6.25 mg/kg/injection, schedule: Q01DX001 (ip), vehicle: saline 112 % of control and 97 % of control

CNCC1CCCO1 (stereo unspecified)
inactive: dose: 25.0 mg/kg/injection, schedule: Q04DX003 (ip), vehicle: saline 100 % of control | dose: 50.0 mg/kg/injection, schedule: Q04DX003 (ip), vehicle: saline 100 % of control | [7] 100 % of control | [8] 99 % of control

Nc1nc(-c2ccc(Cl)c(Cl)c2)cc(-c2cc(-c3ccc(Cl)c(Cl)c3)nc(N)n2)n1
inactive: [10] 96 % of control | [11] 95 % of control | [12] 95 % of control

O=C(NCCF)Oc1cc(Cl)c(Cl)cc1Cl
inactive: dose: 6.25 mg/kg/injection, schedule: Q01DX005 (ip), vehicle: Klucel (hydroxypropylcellulose) (HPC) 106 % of control | [6] 107 % of control and 120 % of control

CCCCCCCCC[N+]1([O-])CCCCCC1
inactive: dose: 12.5 mg/kg/injection, schedule: Q01DX009 (ip), vehicle: saline 100 % of control | dose: 25.0 mg/kg/injection, schedule: Q01DX009 (ip), vehicle: saline 99 % of control | [9] 105 % of control and 107 % of control

COc1ccc(CC(N)c2ccccc2)cc1 (stereo unspecified)
inactive: [9] 96 % of control | [1] 98 % of control

Cc1nc2[nH]c(=O)[nH]c(=O)c2[nH]1
inactive: dose: 100.0 mg/kg/injection, schedule: Q04DX003 (ip), vehicle: saline with Tween-80 100 % of control | dose: 200.0 mg/kg/injection, schedule: Q04DX003 (ip), vehicle: saline with Tween-80 113 % of control

Cc1nc(CC#N)c(C(N)=O)c(Nc2ccccc2)n1
inactive: dose: 100.0 mg/kg/injection, schedule: Q01DX001 (ip), vehicle: saline with Tween-80 92 % of control | dose: 200.0 mg/kg/injection, schedule: Q01DX001 (ip), vehicle: saline with Tween-80 92 % of control | dose: 400.0 mg/kg/injection, schedule: Q01DX001 (ip), vehicle: saline with Tween-80 111 % of control

Cn1c2cc(F)ccc2c(=O)c2c(O)cc3c(c21)C=CC(C)(C)O3
inactive: [3] 94 % of control | [4] 92 % of control | [5] 94 % of control

Cc1c(Cl)cccc1-n1c(=O)c2[nH]c3ccccc3sc=2c1=O
inactive: [10] 100 % of control | [11] 92 % of control | [12] 97 % of control

CCCCOc1ccc2nc(C)cc(N=[N+]=[N-])c2c1
inactive: dose: 30.0 mg/kg/injection, schedule: Q01DX005 (ip), vehicle: saline with Tween-80 94 % of control | [10] 86 % of control and 94 % of control | [11] 97 % of control | [12] 92 % of control
